{"source": "patent US11718612B2", "about": "“Inhibitors of receptor interacting protein kinase I for the treatment of disease” (Board of Regents, The University of Texas System, priority 2019, dated 2023)", "data": [{"target": "RIPK1 (Homo sapiens (Human), UniProt Q13546)", "sequence (Q13546 1-327)": "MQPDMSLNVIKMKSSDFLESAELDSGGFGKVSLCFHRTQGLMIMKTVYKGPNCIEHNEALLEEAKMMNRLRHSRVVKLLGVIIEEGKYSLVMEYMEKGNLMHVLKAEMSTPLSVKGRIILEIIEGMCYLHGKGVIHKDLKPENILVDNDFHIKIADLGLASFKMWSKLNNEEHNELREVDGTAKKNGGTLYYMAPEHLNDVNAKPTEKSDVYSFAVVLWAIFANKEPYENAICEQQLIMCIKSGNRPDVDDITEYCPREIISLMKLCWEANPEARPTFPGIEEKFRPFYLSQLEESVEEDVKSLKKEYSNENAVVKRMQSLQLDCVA", "test": "ADP-Glo kinase assay, RIPK1 activity", "assay_type": "biochemical", "details": "5 nM RIPK1, 50 μM ATP, 6 hr reaction", "method": "In order to measure RIPK1 activity the ADP-Glo kinase assay (Promega, Catalog #V7002) was used to measure the conversion of ATP to ADP. This enzymatic assay was performed in a 384-well white, Optiplate (Perkin Elmer, Catalog #6007299) with assay buffer consisting of 50 mM HEPES pH 7.5 (Gibco, Catalog #15630-080), 50 mM NaCl (Teknova, Catalog #S0252), 30 mM MgCl2 (Ambion, Catalog #AM9530G), 1 mM DTT (Santa Cruz Biotechnology, Catalog #sc-29089), 0.05% BSA (Sigma, Catalog #A3059-50G) and 0.02% CHAPS (Sigma, Catalog #C5070-5G). Stock solutions of the test compounds were prepared in 100% DMSO (Sigma, Catalog #D2650) and serially diluted 1:3 using 100% DMSO. Compounds were additionally diluted 1:40 in assay buffer, and 2 μL/well were transferred to the assay plate. 4 μL/well (final concentration of 5 nM) of RIPK1 protein (SignalChem, Catalog #R07-11G-05) diluted in assay buffer and added to the assay plate followed by a 10 minute preincutation at room temperature. 4 μL/well of ATP (Promega, Catalog #V7002) (final concentration of 50 μM) diluted in assay buffer were then added to the assay plate followed by a 6 hr reaction time. Final concentrations of RIPK1 and ATP refer to a 10 μL volume. Luminescence was measured using a BioTek Synergy™ NEO plate reader. IC50 values were calculated using a four-parameter logistic curve fit using Genedata Screener software.", "units": {"IC50": "nM"}, "values": [{"smiles": "O=C1c2nn(Cc3ccccc3)c(Cl)c2CCN1c1cccc(Cl)c1F", "note": "[Example 2, 2-Benzyl-3-chloro-6-(3-chloro-2-fluoro-phenyl)-4,5-dihydropyrazolo[3,4-c]pyridin-7-one]", "IC50": 17.4}, {"smiles": "O=C1c2nn(Cc3cc(F)cc(F)c3)c(Cl)c2CCN1c1cccc(Cl)c1F", "note": "[Example 3, 3-Chloro-6-(3-chloro-2-fluorophenyl)-2-(3,5-difluorobenzyl)-5,6-dihydro-2H-pyrazolo[3,4-c]pyridin-7(4H)-one]", "IC50": 111}, {"smiles": "Cc1cc(C(=O)Nc2cccc(Cl)c2F)nn1Cc1ccccc1", "note": "[Example 5, 1-benzyl-N-(3-chloro-2-fluoro-phenyl)-5-methyl-pyrazole-3-carboxamide]", "IC50": 14500}, {"smiles": "Cc1c(F)c(C(=O)Nc2cccc(Cl)c2F)nn1Cc1ccccc1", "note": "[Example 6, 1-Benzyl-N-(3-chloro-2-fluorophenyl)-4-fluoro-5-methyl-1H-pyrazole-3-carboxamide]", "IC50": 920}, {"smiles": "O=C(Nc1cccc(Cl)c1F)c1ccn(Cc2ccccc2)n1", "note": "[Example 7, 1-Benzyl-N-(3-chloro-2-fluorophenyl)-1H-pyrazole-3-carboxamide]", "IC50": 12100}, {"smiles": "O=C(Nc1cccc(Cl)c1F)c1cc(O)n(Cc2cnccn2)n1", "note": "[Example 8, N-(3-chloro-2-fluoro-phenyl)-5-hydroxy-1-(pyrazin-2-ylmethyl)pyrazole-3-carboxamide]", "IC50": 31200}, {"smiles": "O=C(Nc1cccc(Cl)c1F)c1nc(Cc2ccccc2)c[nH]1", "note": "[Example 14, 4-Benzyl-N-(3-chloro-2-fluoro-phenyl)-1H-imidazole-2-carboxamide]", "IC50": 6960}, {"smiles": "O=C1c2nc(Cc3ccccc3)cn2CCN1c1cccc(Cl)c1F", "note": "[Example 15, 2-Benzyl-7-(3-chloro-2-fluoro-phenyl)-5,6-dihydroimidazo[1,2-a]pyrazin-8-one]", "IC50": 3150}, {"smiles": "O=C1c2nc(Cc3ccccc3)c(Cl)n2CCN1c1cccc(Cl)c1F", "note": "[Example 16, 2-Benzyl-3-chloro-7-(3-chloro-2-fluoro-phenyl)-5,6-dihydroimidazo[1,2-a]pyrazin-8-one]", "IC50": 123}, {"smiles": "O=C(Nc1cccc(Cl)c1F)c1nc(Cc2ccccc2)c(Cl)[nH]1", "note": "[Example 18, 4-Benzyl-5-chloro-N-(3-chloro-2-fluoro-phenyl)-1H-imidazole-2-carboxamide]", "IC50": 18700}, {"smiles": "Cc1nc(C(=O)Nc2cccc(Cl)c2F)nn1Cc1cccc(C#N)c1", "note": "[Example 34, N-(3-chloro-2-fluoro-phenyl)-1-(3-cyano-benzyl)-5-methyl-1H-1,2,4-triazole-3-carboxamide]", "IC50": 472}, {"smiles": "O=C(Nc1ccc(Cl)c(Cl)c1F)c1ncn(Cc2ccccc2)n1", "note": "[Example 37, 1-benzyl-N-(3,4-dichloro-2-fluoro-phenyl)-1H-1,2,4-triazole-3-carboxamide]", "IC50": 1100}, {"smiles": "O=C(Nc1cc(C(F)(F)F)cc(Cl)c1F)c1ncn(Cc2ccccc2)n1", "note": "[Example 38, 1-benzyl-N-(3-chloro-2-fluoro-5-(trifluoro-methyl)phenyl)-1H-1,2,4-triazole-3-carboxamide]", "IC50": 1300}, {"smiles": "N#Cc1ccc(NC(=O)c2ncn(Cc3ccccc3)n2)c(F)c1Cl", "note": "[Example 39, 1-benzyl-N-(3-chloro-4-cyano-2-fluorophenyl)-1H-1,2,4-triazole-3-carboxamide]", "IC50": 1410}, {"smiles": "O=C(Nc1ccc(Br)c(Cl)c1F)c1ncn(Cc2ccccc2)n1", "note": "[Example 40, 1-benzyl-N-(4-bromo-3-chloro-2-fluoro-phenyl)-1H-1,2,4-triazole-3-carboxamide]", "IC50": 1650}, {"smiles": "COc1ccc(N(C)C(=O)c2ncn(Cc3ccccc3)n2)c(F)c1Cl", "note": "[Example 41, 1-benzyl-N-(3-chloro-2-fluoro-4-methoxy-phenyl)-N-methyl-1H-1,2,4-triazole-3-carboxamide]", "IC50": 9250}, {"smiles": "O=C1c2nc(Cc3ccccc3)c(Cl)n2CCN1c1cccc(Cl)c1", "note": "[Example 42, 2-benzyl-3-chloro-7-(3-chlorophenyl)-6,7-dihydroimidazo[1,2-a]pyrazin-8(5H)-one]", "IC50": 318}, {"smiles": "O=C1c2nc(Cc3ccccc3)cn2CCN1c1cccc(Cl)c1", "note": "[Example 43, 2-benzyl-7-(3-chlorophenyl)-6,7-dihydroimidazo[1,2-a]pyrazin-8(5H)-one]", "IC50": 13700}, {"smiles": "Cn1cc(C(=O)Nc2cccc(Cl)c2F)nc1Cc1ccccc1", "note": "[Example 44, 2-benzyl-N-(3-chloro-2-fluorophenyl)-1-methyl-1H-imidazole-4-carboxamide]", "IC50": "> 33000"}, {"smiles": "O=C(Nc1cccc(Cl)c1F)c1c[nH]c(Cc2ccccc2)n1", "note": "[Example 45, 2-benzyl-N-(3-chloro-2-fluorophenyl)-1H-imidazole-4-carboxamide]", "IC50": 48600}, {"smiles": "O=C1c2cc(Cc3ccccc3)ccc2CN1c1ccccc1F", "note": "[Example 48, 6-Benzyl-2-(2-fluorophenyl)isoindolin-1-one]", "IC50": 2470}, {"smiles": "O=C1c2nc(Cc3ccccc3)ccc2CN1c1ccccc1F", "note": "[Example 49, 2-Benzyl-6-(2-fluorophenyl)-5,6-dihydro-7H-pyrrolo[3,4-b]pyridin-7-one]", "IC50": 3680}, {"smiles": "Cc1cc(NC(=O)c2ncn(Cc3ccccc3)n2)ccc1OC(F)(F)F", "note": "[Example 53, 1-benzyl-N-(3-methyl-4-(trifluoromethoxy)-phenyl)-1H-1,2,4-triazole-3-carboxamide]", "IC50": 4910}, {"smiles": "O=C(Nc1cccc(Cl)c1F)c1ncn(Cc2cncc(F)c2)n1", "note": "[Example 103, N-(3-chloro-2-fluorophenyl)-1-((5-fluoropyridin-3-yl)methyl)-1H-1,2,4-triazole-3-carboxamide]", "IC50": 83.9}]}, {"test_system": "U937 cells", "test": "Human U937 cellular necroptosis assay", "assay_type": "cell-based", "details": "U-937; U937 cells stimulated with 25 ng/mL human TNFalpha and 25 μM z-VAD-FMK; 22 hr; Cell Titer-Glo viability", "method": "Human U937 Cellular Necroptosis Assay\nThe human monocytic cell line U937 (CRL-1593.2) may be purchased from ATCC. The cells are routinely maintained in RPMI-1640 Medium (Gibco, Catalog #11875-093) supplemented with 10% heat inactivated fetal bovine serum (Gibco, Catalog #16140-071), 100 units/mL penicillin and 100 μg/mL streptomycin (Gibco, Catalog #15140-122), in a humidified incubator (37° C., 5% CO2). For the assay, cells are resuspended in RPMI-1640 phenol red free Media (Gibco, Catalog #11835-030) supplemented with 10% fetal bovine serum (Sigma, Catalog #F2442), 100 units/mL penicillin and 100 ug/mL streptomycin. […] Stock solutions of the test compounds are prepared in 100% DMSO (Sigma, Catalog #D2650) and serially diluted 1:3 using 100% DMSO. Compounds are additionally diluted 1:40 in assay medium, and 10 μL/well was transferred to the plate. Following the compound addition, the plate is incubated at 37° C. and 5% CO2 for 22 hr. After 22 hr, viability is assessed with the addition of 20 μL of Cell Titer-Glo 2.0 (Promega, Catalog #G9243). The tissue culture plate is shaken on an orbital shaker at 300 RPM for 15 minutes at room temperature in the dark. Luminescence is measured using a PerkinElmer Envision™ plate reader. IC50 values are calculated using a four-parameter logistic curve fit using Genedata Screener software.", "units": {"IC50": "nM"}, "values": [{"smiles": "O=C1c2nn(Cc3ccccc3)c(Cl)c2CCN1c1cccc(Cl)c1F", "note": "[Example 2, 2-Benzyl-3-chloro-6-(3-chloro-2-fluoro-phenyl)-4,5-dihydropyrazolo[3,4-c]pyridin-7-one]", "IC50": 71.2}, {"smiles": "O=C1c2nn(Cc3cc(F)cc(F)c3)c(Cl)c2CCN1c1cccc(Cl)c1F", "note": "[Example 3, 3-Chloro-6-(3-chloro-2-fluorophenyl)-2-(3,5-difluorobenzyl)-5,6-dihydro-2H-pyrazolo[3,4-c]pyridin-7(4H)-one]", "IC50": 189}, {"smiles": "CC(=O)NCc1cc(Cl)c(F)c(N2CCc3c(nn(Cc4cccc(F)c4F)c3Cl)C2=O)c1", "note": "[Example 85, N-(3-chloro-5-(3-chloro-2-(2,3-difluorobenzyl)-7-oxo-2,4,5,7-tetrahydro-6H-pyrazolo[3,4-c]pyridin-6-yl)-4-fluorobenzyl)acetamide]", "IC50": 1040}, {"smiles": "Cc1cnc(Cn2cnc(C(=O)Nc3cccc(Cl)c3F)n2)cn1", "note": "[Example 91, N-(3-chloro-2-fluorophenyl)-1-((5-methylpyrazin-2-yl)methyl)-1H-1,2,4-triazole-3-carboxamide]", "IC50": 2560}, {"smiles": "NCc1cc(Cl)c(F)c(NC(=O)c2ncn(Cc3ccccc3)n2)c1", "note": "[Example 92, N-(5-(aminomethyl)-3-chloro-2-fluorophenyl)-1-benzyl-1H-1,2,4-triazole-3-carboxamide]", "IC50": 1650}, {"smiles": "CS(=O)(=O)NCc1cc(Cl)c(F)c(NC(=O)c2ncn(Cc3ccccc3)n2)c1", "note": "[Example 93, 1-Benzyl-N-(3-chloro-2-fluoro-5-(methylsulfonamidomethyl)phenyl)-1H-1,2,4-triazole-3-carboxamide]", "IC50": 1500}, {"smiles": "O=C(Nc1cc(CO)cc(Cl)c1F)c1ncn(Cc2ccccc2)n1", "note": "[Example 94, 1-Benzyl-N-(3-chloro-2-fluoro-5-(hydroxymethyl)phenyl)-1H-1,2,4-triazole-3-carboxamide]", "IC50": 797}, {"smiles": "COCCOCc1cc(Cl)c(F)c(NC(=O)c2ncn(Cc3ccccc3)n2)c1", "note": "[Example 95]", "IC50": 529}, {"smiles": "N#CCc1cc(Cl)c(F)c(NC(=O)c2ncn(Cc3ccccc3)n2)c1", "note": "[Example 96, 1-Benzyl-N-(3-chloro-5-(cyanomethyl)-2-fluorophenyl)-1H-1,2,4-triazole-3-carboxamide]", "IC50": 347}, {"smiles": "O=C(Nc1cc(Cn2ccnc2)cc(Cl)c1F)c1ncn(Cc2ccccc2)n1", "note": "[Example 97, N-(5-((1H-imidazol-1-yl)methyl)-3-chloro-2-fluorophenyl)-1-benzyl-1H-1,2,4-triazole-3-carboxamide]", "IC50": 1180}, {"smiles": "O=C(Nc1cc(Cn2cnc3ccccc32)cc(Cl)c1F)c1ncn(Cc2ccccc2)n1", "note": "[Example 98, N-(5-((1H-benzo[d]imidazol-1-yl)methyl)-3-chloro-2-fluorophenyl)-1-benzyl-1H-1,2,4-triazole-3-carboxamide]", "IC50": 3860}, {"smiles": "O=C(Nc1cc(Cn2cccn2)cc(Cl)c1F)c1ncn(Cc2ccccc2)n1", "note": "[Example 99, N-(5-((1H-pyrazol-1-yl)methyl)-3-chloro-2-fluorophenyl)-1-benzyl-1H-1,2,4-triazole-3-carboxamide]", "IC50": 2540}]}]}
